In general, pIC50 refers to the negative decadic logarithm of the IC50, by convention in mol/L.

In assay [1] the test system is HB9::GFP-SOD1^+/A4V human motor neurons. Briefly: Rescue of CPA toxicity in human ESC-derived motor neurons, SOD1^+/A4V. The class given is cell-based. The text has this: (§1) One advantage of the stem cell-derived motor neuron survival assay is that it can be easily extended to human motor neurons. To adapt the assay to human cells, we generated a new isogenic pair of ESC lines derived from a human ESC line expressing GFP under the control of the Hb9 motor neuron promoter (HUES3 HB9::GFP, (Di Giorgio et al. 2008)). […] . The pair of cell lines was differentiated into motor neurons in parallel using previously published protocols (Amoroso et al. 2013; […] .
(§2) Differentiation of human isogenic HUES3 ESC HB9::GFP reporter lines into motor neurons was performed as previously described (Maury et al. 2015). Cells were dissociated on day 16 of differentiation, FACS-sorted and plated on poly-ornithine- and laminin-coated surfaces as above. Serum-free human motor neuron plating media was supplemented with the antimitotic UFdU and the neurotrophic factors GDNF, BDNF, CNTF, and IGF1 (all at 10 ng/mL) as described (Johnson-Kerner et al. 2015).

In the next assay the test system is hSOD1^G93A motor neurons. Briefly: RT-PCR of stress-associated genes after CPA treatment. The class given is cell-based, mouse. As for the experimental part:
. We observed a rapid increase in the expression of Bip and the key downstream effector Chop (Ddit3). Bip was increased 2-fold after 1 hour of CPA exposure, and continued to increase to approximately 5-fold by 8 hours. […] Other genes with >2-fold induction included: p58/PK 255 (6.5 fold at 8 hours), an ER-stress-induced protein kinase; Growth arrest and DNA-damage inducible protein 45 alpha (Gadd45a; […]; Erdj4, a Bip cofactor with involvement in ER associated protein degradation (ERAD) (5-fold at 4-8 hours); Atf4, a downstream mediator of the PERK-axis of the UPR (3-fold at 8 hours); […]; and Nrf2, a PERK substrate (2 fold at 8 hours). Altogether, these expression changes pointed to strong activation of multiple axes of the unfolded protein response (UPR) in motor neurons exposed to CPA (FIG. 19F).
Samples were lysed in TRIzol and frozen at −80° C. until further processing. RNA was extracted using the Qiashredder and Qiagen RNeasy Mini kits (Qiagen) according to the manufacturer's protocol. 1-2 μg total RNA was used for each reverse transcription reaction, and reactions were performed using the TaqMan RT kit (Applied Biosystems, Grand Island, NY, USA). Primer pairs were designed for target transcripts using Primer Express 3.0 (Applied Biosystems). Quantitative PCR reactions were performed using the Power SYBR Green PCR Master Mix (Applied Biosystems). Reactions were run and analyzed on a ViiA 7 (Life Technologies) qPCR instrument using absolute quantification settings.

Assay [2] concerns ESC-derived spinal motor neurons and interneurons. Briefly: Toxicity of ER stressors in mouse ESC-derived spinal neuron cultures. It counts as cell-based. The text has this: One of the selective stressors that we identified was cyclopiazonic acid (CPA), a mycotoxin that reversibly blocks the sarcoendoplasmic reticulum-associated calcium ATPse (SERCA). SERCA is responsible for sequestering calcium from the cytoplasm into the endoplasmic reticulum (ER) (Goeger et al. 1988). SERCA inhibition lowers calcium concentration in the ER, leading to dysfunction of protein folding, activation of the unfolded protein response, ER stress, and apoptosis (Doutheil et al. 1997). […]. For all subsequent experiments, unless stated otherwise, motor neurons were treated with 7.5 μM CPA.
[…]. […] […].
For this analysis, we generated a new ESC line that expresses tdTomato in dI4 and dIL dorsal spinal inhibitory interneurons derived from Ptf1α-expressing progenitors (Hoang et al. 2017, unpublished data). We differentiated this line under conditions that promote the specification of dorsal interneuron identity. FACS-purified tdTomato-expressing interneurons were co-cultured with FACS-purified GFP-expressing spinal motor neurons (FIG. 16E and FIG. 16G).
To strengthen the link between the activation of ER stress and motor neuron degeneration, we extended our study to include two additional compounds that activate ER stress: thapsigargin, a drug that acts similarly to CPA by inhibiting SERCA pumps, but is irreversible (Lytton et al. 1991), and tunicamycin, a drug that triggers ER stress in a calcium-independent manner by inhibiting protein N-glycosylation in the ER (Oslowski et al. 2011). […] Thus, the motor neuron-toxic effects of CPA are likely related to its activation of ER stress pathways and not to its effects on calcium levels or other off-target effects (FIG. 16G).

Assay [3] deals with human stem cell-derived motor neurons derived from a healthy patient. Briefly: CPA survival assay, wild-type human stem cell-derived motor neurons. Particulars: for motor neuron survival restored, % of vehicle controls (maximum): CPA 33 μM, at 1.2 μM (PF-6260933), 2.4 μM (GNE-495), 0.6 μM (URMC-099).
Assay [4] relates to HB9::GFP-SOD1^+/+ human motor neurons. Briefly: Rescue of CPA toxicity in human ESC-derived motor neurons, SOD1^+/+. The note with it: 33 μM CPA; for rescue of CPA-induced cell death: WT motor neurons. The class given is cell-based.
Source text: as §1, §2

The target of assay [5] is T1, HGK/MAP4K4 (Homo sapiens, UniProt O95819). Briefly: Radiolabeled ATP kinase assay (Reaction Biology Corp.), HGK. The class given is biochemical. Also noted: purchased Reaction Biology Corp. The note with it: 10 μM ATP, read-out: % Enzyme Activity (relative to DMSO controls), HGK/MAP4K4, Data 1. As to the method:
(§3) Meanwhile, the same analogs were analyzed in a radiolabeled ATP assay (10 μM ATP; Reaction Biology Corp.) to compare the extent to which they could inhibit the activity of HGK, MLK1, or MLK3 in a cell-free environment (Table S3 and S4).
Target sequence in this assay (O95819 whole entry): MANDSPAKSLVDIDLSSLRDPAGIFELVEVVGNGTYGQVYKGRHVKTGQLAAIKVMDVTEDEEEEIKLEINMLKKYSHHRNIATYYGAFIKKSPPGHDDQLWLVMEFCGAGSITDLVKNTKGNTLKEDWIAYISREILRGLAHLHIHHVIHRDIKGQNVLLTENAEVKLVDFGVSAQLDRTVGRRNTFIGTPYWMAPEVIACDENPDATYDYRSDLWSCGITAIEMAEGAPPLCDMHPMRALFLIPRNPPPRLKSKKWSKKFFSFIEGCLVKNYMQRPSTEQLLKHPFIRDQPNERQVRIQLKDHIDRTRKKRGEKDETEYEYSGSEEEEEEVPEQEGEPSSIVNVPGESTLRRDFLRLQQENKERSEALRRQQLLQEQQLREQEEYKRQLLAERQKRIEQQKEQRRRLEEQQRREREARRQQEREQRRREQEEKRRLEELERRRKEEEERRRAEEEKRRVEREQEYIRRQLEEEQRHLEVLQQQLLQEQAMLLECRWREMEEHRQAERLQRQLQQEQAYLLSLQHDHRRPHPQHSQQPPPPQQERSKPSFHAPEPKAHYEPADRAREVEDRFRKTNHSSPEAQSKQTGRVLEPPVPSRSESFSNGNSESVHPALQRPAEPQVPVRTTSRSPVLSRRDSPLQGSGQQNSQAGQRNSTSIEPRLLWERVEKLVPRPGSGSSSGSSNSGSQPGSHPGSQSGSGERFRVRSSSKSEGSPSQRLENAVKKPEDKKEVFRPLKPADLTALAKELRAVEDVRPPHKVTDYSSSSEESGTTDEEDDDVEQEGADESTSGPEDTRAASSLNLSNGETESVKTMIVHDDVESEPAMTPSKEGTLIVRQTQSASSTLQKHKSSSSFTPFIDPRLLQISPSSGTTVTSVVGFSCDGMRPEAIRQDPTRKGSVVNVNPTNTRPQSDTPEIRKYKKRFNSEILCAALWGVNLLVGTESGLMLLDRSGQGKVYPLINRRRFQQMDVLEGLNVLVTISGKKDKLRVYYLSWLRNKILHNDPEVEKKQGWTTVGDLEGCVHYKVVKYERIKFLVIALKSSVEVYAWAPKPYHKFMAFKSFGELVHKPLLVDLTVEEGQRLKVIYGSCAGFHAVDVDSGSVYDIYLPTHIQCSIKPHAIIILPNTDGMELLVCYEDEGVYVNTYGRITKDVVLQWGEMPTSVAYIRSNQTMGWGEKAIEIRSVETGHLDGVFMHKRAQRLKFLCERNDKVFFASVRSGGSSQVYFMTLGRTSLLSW

For a further assay, the system named is N9 microglial cells. Briefly: TNFα release by LPS-stimulated microglia (ELISA). It counts as cell-based, mouse. Particulars: LPS 0.1-5 μM; 24 h. As to the method:
To model microglial activation in vitro, we stimulated mouse N9 microglial cells with increasing concentrations of E. coli-derived lipopolysaccharides (LPS) (0.1-5 μM) to measure release of the pro-inflammatory cytokine TNFα into cell culture media.
Cultures were maintained in DMEM containing FBS (10%, Life Technologies) and Glutamax (1%, Life Technologies). […] N9 cells remaining in the culture dishes were treated with AlamarBlue (Thermo Fisher) to assess viability. 5 μL AlamarBlue was added to each well (containing 50 μL culture media) and incubated for 4 h at 37°.
For orientation: In an ELISA, binding on a coated surface is turned into a signal by an enzyme label.

The target of a further assay is T2, MLK3/MAP3K11 (Homo sapiens, UniProt Q16584).
T2 construct: purchased Reaction Biology Corp
Briefly: Radiolabeled ATP kinase assay (Reaction Biology Corp.), MLK3. The class given is biochemical. Particulars: 0.1 μM. As to the method:
as §3

For assay [6], the system named is human ES motor neurons carrying the ALS-causing SOD1^A4V mutation. Briefly: cells. It counts as cell-based. Particulars: 72 h. As for the experimental part:
Next, survival assays were performed with all the analogs at once to generate a low-variability dataset. All compounds were evaluated at concentrations ranging from 0.1-3.0 μM (five-point dilution) in three technical replicates and two biological replicates.

The next assay has as its system human ES motor neurons. Briefly: Rescue of CPA toxicity by kinase inhibitors in dilution series (FIG. 3). Particulars: dilution series, FIG. 3.
In assay [7] the target is T1, HGK/MAP4K4. Particulars: Ammirati et al. 2015; Ndubaku et al. 2015; cited from earlier work.
Target sequence in this assay (O95819 whole entry, species assumed): as the sequence (O95819 whole entry) above
Another assay addresses NUAK1 (Homo sapiens, UniProt O60285). Particulars: 0.5 μM inhibitor; Anastassiadis et al. 2011; cited from earlier work.

Each structure is given as a SMILES string. pIC50: −log10 of the molar value. Where two headings read alike, the source gives them in different places.

Sequence of NUAK1 (O60285 whole entry, species assumed): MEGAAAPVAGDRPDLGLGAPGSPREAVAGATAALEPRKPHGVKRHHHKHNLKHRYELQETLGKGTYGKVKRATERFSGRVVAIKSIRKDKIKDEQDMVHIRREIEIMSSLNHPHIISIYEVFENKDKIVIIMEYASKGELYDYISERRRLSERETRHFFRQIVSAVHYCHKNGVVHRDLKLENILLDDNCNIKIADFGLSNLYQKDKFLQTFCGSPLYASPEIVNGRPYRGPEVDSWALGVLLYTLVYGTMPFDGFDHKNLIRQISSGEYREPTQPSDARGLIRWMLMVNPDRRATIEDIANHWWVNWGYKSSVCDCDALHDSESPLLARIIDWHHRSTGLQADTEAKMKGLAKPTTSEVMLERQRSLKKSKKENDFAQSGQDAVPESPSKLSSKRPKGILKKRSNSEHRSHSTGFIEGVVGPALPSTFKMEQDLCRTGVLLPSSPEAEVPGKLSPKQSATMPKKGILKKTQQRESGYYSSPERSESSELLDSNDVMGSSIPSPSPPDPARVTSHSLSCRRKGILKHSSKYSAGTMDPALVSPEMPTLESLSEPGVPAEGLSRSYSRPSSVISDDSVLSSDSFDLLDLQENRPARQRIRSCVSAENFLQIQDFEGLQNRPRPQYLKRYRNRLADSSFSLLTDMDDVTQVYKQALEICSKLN
T2 sequence (Q16584 whole entry): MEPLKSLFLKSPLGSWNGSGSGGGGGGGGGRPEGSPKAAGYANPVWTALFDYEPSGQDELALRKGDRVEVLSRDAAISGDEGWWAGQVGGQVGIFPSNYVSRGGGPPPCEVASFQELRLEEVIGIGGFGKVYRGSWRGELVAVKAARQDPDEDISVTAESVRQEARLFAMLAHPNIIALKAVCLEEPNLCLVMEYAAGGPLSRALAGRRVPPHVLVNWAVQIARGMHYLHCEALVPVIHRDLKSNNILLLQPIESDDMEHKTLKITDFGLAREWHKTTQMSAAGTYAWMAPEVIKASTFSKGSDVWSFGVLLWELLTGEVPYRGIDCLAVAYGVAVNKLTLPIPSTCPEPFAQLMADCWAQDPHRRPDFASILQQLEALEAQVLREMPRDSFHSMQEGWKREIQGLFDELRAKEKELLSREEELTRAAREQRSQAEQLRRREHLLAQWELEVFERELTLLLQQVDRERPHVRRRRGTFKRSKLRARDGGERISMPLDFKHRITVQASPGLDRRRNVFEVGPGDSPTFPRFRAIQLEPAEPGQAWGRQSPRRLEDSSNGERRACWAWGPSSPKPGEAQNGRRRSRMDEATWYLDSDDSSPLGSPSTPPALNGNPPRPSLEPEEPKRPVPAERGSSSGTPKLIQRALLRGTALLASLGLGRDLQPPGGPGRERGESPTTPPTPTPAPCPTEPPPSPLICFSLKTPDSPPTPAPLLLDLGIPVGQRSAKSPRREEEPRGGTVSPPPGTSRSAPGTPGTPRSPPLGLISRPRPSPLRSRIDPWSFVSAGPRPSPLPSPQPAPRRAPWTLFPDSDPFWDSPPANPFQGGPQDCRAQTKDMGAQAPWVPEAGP

For the compound `CC(=O)C1=C(O)[C@@H]2[C@H]3c4c[nH]c5cccc(c45)C[C@H]3C(C)(C)N2C1=O` [CPA, cyclopiazonic acid], the “loss of motor neurons” value in [1] (33 μM CPA) is approximately 86%. Also, in the assay on hSOD1^G93A motor neurons (4-8 hours), the Erdj4 induction came to 5 fold. This compound registered a Chop induction with hSOD1^G93A motor neurons (4 and 8 hours) of 16 fold. For the same compound, the Chop induction with hSOD1^G93A motor neurons (1 hour) is listed as 4 fold. This compound had a Bip expression increase in the assay with hSOD1^G93A motor neurons (1 hour of CPA exposure) of 2 fold. For the same compound, in the assay on hSOD1^G93A motor neurons (4 hours), the Gadd45a induction came out at 5 fold. In the assay with hSOD1^G93A motor neurons (8 hours), the Atf4 induction turned out to be 3 fold, the Bip expression increase result was “approximately 5 fold”, the Calreticulin induction came to 3 fold and the Nrf2 induction is listed as 2 fold. This compound came in with a p58/PK induction in the assay on hSOD1^G93A motor neurons (8 hours) of 6.5 fold. Besides, in assay [2], the “effective concentration range at which mutant motor neurons exhibit reduced survival compared to control” value lay within 6.25 to 12.5 µM; the “reduction of survival of GFP− Tuj-1+ non-motor neurons” value is given as approximately 23%; the “reduction of survival of motor neurons (GFP+, Tuj1+)” value is approximately 71%. Further, in assay [2] (FACS-purified co-culture, CPA), the “reduction of co-cultured spinal motor neuron survival” value is listed as approximately 70% and the “reduction of dorsal spinal interneuron survival” value is approximately 17%. Besides, the “motor neuron survival, % of controls treated with vehicle alone” value in [3] (CPA 33 μM for 72h, alone) is approximately 40%. In addition, the “loss of motor neurons” value in assay [4] is listed as approximately 71%.
As for `CN1CC2CCC(C1)N2Cc1ccc(-c2cnc3[nH]cc(-c4cccc5[nH]ncc45)c3c2)cc1` [Compound 12e, 4-(5-(4-((3-Methyl-3,8-diazabicyclo[3.2.1]octan-8-yl)methyl)phenyl)-1H-pyrrolo[2,3-b]pyridin-3-yl)-1H-indazole], the remaining activity at 0.025 µM at HGK/MAP4K4 [5] ([Cmpd] 0.025 μM) is 2.73%. The remaining activity at 0.1 µM is 0.99% on HGK/MAP4K4 [5] ([Cmpd] 0.1 μM) and 71.8% on MLK3/MAP3K11. Further, in the assay on N9 microglial cells, the “TNFα secretion in LPS-stimulated microglia” value is on record as “did not significantly decrease TNFα levels”. The EC50 entry in assay [6] (CPA 33 μM) is recorded as “Amibiguous”. Besides, the viability at 1 µM in [6] (Homo sapiens, Neuron, CPA (33 μM) + compound (1 μM), read-out: Motor Neuron Survival, % untreated) amounted to 106%. For the same compound, the Emax in assay [6] (Homo sapiens, Neuron, CPA 33 μM, read-out: Emax (MN survival % untreated)) was found to be 144%.
`COC(=O)[C@@]1(O)C[C@H]2O[C@]1(C)n1c3ccccc3c3c4c(c5c6ccccc6n2c5c31)C(=O)NC4` [Compound K-252a]: the “rescue of CPA-induced cell death” value in [1] is on record as 100%; in assay [4], 56%.
For the compound `Nc1ncc(C(=O)NC2CN(C(=O)C3CC3)C2)c2ccc(-c3cccc(F)c3)nc12` [GNE-495], the “rescue of CPA toxicity” value in the assay on human ES motor neurons is “similarly neuroprotective”. Moreover, the “motor neuron survival restored, % of vehicle controls (maximum)” value in assay [3] is 73%. For the same compound, the pIC50 at HGK/MAP4K4 [7] was 8.43.
Consider `Cn1c2ccccc2c2c3c(c4c5ccccc5n(CCC#N)c4c21)CNC3=O` [Go 6976], for which the “rescue of CPA-induced cell death” value in assay [1] (SOD1^A4V motor neurons, 33 μM CPA) turned out to be 34%; in assay [4] it was 45%.
On to `Nc1ccc(-c2cnc(N)c(-c3ccc(Cl)cc3)c2)cn1` [PF-6260933], for which the “rescue of CPA toxicity” value with human ES motor neurons is “protected against CPA toxicity in a dose-dependent manner”. Besides, the “motor neuron survival restored, % of vehicle controls (maximum)” value in [3] stood at 63%. In addition, the pIC50 on HGK/MAP4K4 [7] is 8.43.
Turning to `CN(C)S(=O)(=O)c1ccc2c(c1)/C(=C/c1cc3c([nH]1)CCCC3)C(=O)N2` [SU6656], the NUAK1 activity remaining on NUAK1 is recorded as 10.9%. The “rescue of CPA toxicity” value in the assay with human ES motor neurons was “failed to rescue CPA toxicity”.

The record behind these values is US12227500B2, “Substituted pyrrolo[2,3-b]pyridines for suppressing toxic endoplasmic reticulum stress” (THE TRUSTEES OF COLUMBIA UNIVERSITY IN THE CITY OF NEW YORK, priority 2018, dated 2025).
